“Also recorded” adds a separate entry of the source. Read-outs that look alike come from different tables or passages of the source.
Columns and labels:
[1] = system: human microvascular endothelial cell (HMVEC) migration; experiment: Cell migration assay (wounding) on HMVEC; type: cell-based; conditions: for effect of siRNA on growth factor induced endothelial cell migration: 96 hours after transfection, FIG. 7; for HMVEC migration after siRNA transfection: in the absence of added growth factors, vs vehicle control, FIG. 6B
[2] = system: human microvascular endothelial cell (HMVECs)
Source text: To further investigate the effects of nAChR-dependent pathways on EC migration, the effect of the nAChR antagonist, hexamethonium, on EC migration induced by nicotine, VEGF and bFGF was studied.

[3] = system: thioredoxin activity in human microvascular endothelial cells; experiment: Thioredoxin bioassay (colorimetric, DTNB) on HMVEC protein extracts; type: cell-based; conditions: for thioredoxin activity after siRNA transfection: in the absence of the stimuli, vs vehicle control, FIG. 6A
Method: Thioredoxin Bioassay. Thioredoxin was assayed based upon previously published colorimetric protocols. Wang et al. (2002) J. Biol Chem. 277:26496-26500. The level of thioredoxin activity is assessed at […] via the […] of a colorimetric substrate DTNB (5,5′-dithiobis(2-nitrobenzoic acid)). Protein extracts were obtained by subjecting cells to a lysis buffer (20 mM HEPES (pH 7.9), 300 mM NaCl, 100 mM KCl, 10 mM EDTA, 0.1% Nonidet P-40, PMSF protease inhibitors).
Double-stranded siRNA were transfected into cells (Lipofectamine2000 reagent, Invitrogen). 24 hours after transfection, HMVEC migration experiments were performed, in the presence of vehicle or stimuli. Cell migration and thioredoxin activity were assayed as described above.

[4] = system: HMVECs; experiment: cDNA microarray analysis of HMVECs; type: cell-based, human
Method: Microarray Analyses. HMVECs were grown to 50-70% confluency. Subconfluent rather than confluent HMVEC cultures were studied because they more closely resemble conditions associated with cell migration in vivo, and because this condition is associated with increased EC expression of α7-nAChRs. Heeschen et al. (2002) J. Clin. Invest. 110:527-536. The concentration of the FBS in the media was then reduced to 1% so as to render the endothelial cells quiescent. After 24 hours, nicotine (10^−8M), VEGF (10 ng/ml) or bFGF (10 ng/ml) was added. Total RNA was then harvested at 24 hours. Five separate experiments per condition were processed for cDNA microarray analysis. Fluorescently labeled cDNAs (stimulated HMVECs versus vehicle-treated HMVECs at 24 hours post incubation) were hybridized on cDNA microarrays containing 39711 nonredundant cDNA clones, representing 26,260 unique UniGene clusters (SFGF, Stanford, Calif.). Eisen et al. (1998) Proc Natl Acad Sci USA 95:14863-14868. Scanning of processed microarray slides was performed using a GenePix400A scanner and images analysed with GENEPIX PRO software (Axon Instruments, Foster City, Calif.). Microarray data were stored in the Stanford Microarray Database (Stanford, Calif.). Spots with signal less than 2.5-fold above background were removed in both channels and/or a regression correlation of less than 0.6. Genes with less than 80% evaluable data were excluded and the remaining data was then normalized. The significance of microarrays (SAM) algorithm was used with a one-class design to identify genes differentially expressed by treatment with each stimuli at each timepoint. Tusher et al. (2001) Proc Natl Acad Sci USA. 98:5116-5121. Delta values giving approximately 5% false discovery were chosen. To analyze convergent gene expression profiles, all differentially expressed genes at 24 hours were hierarchically clustered by gene and by array (Cluster software, version 2.11), and the results analysed with Treeview software (version 1.6). Eisen et al. (1998) supra.

[5] = HMVEC, 24 h, effect stronger for bFGF than for nicotine or VEGF, FIG. 3B Panel D
[6] = vs vehicle, nicotine 10^−8M to 10^−4M, VEGF or bFGF 1-10 ng/ml, FIG. 1, 2A, 5B
[7] = HMVEC, vs vehicle, nicotine 10^−8M, VEGF 10 ng/ml, bFGF 10 ng/ml, hexamethonium 10^−4M, FIG. 4, 5A

C[N+](C)(C)CCCCCC[N+](C)(C)C [hexamethonium, hexamethonium bromide]
effect on growth factor (VEGF or bFGF)-induced EC migration [1]: significantly attenuated
effect on nicotine-induced EC migration [1]: abrogated; also recorded: abolished
cell death (cellular toxicity) ([2]; antagonist alone, MTT assay): did not induce cell death
effect on nicotine-, VEGF- or bFGF-induced thioredoxin activity [3]: inhibited
thioredoxin activity, agent alone [3]: no significant effect

CNC1(C)C2CCC(C2)C1(C)C (stereo not shown) [mecamylamine]
cell death (cellular toxicity) [2]: did not induce cell death

CN1CCC[C@H]1c1cccnc1 [nicotine, S-3-(1-methyl-2-pyrrolidinyl)pyridine, reference compound]
expression of the VEGF receptor FLT1 [4, 5]: induced activation
concentration of maximal stimulation of EC migration ([1]; HMVEC, dose range 10^−8M to 10^−4M, FIG. 2A): 10^−8 M
EC (HMVEC) migration, stimulus alone [1, 6]: greater migratory activity; also recorded: induced human microvascular endothelial cell (HMVEC) migration in a dose-dependent fashion
EC (HMVEC) migration, stimulus alone ([1]; vs vehicle, nicotine 10^−8M to 10^−4M, VEGF or bFGF 1-10 ng/ml, FIG. 1, 2A, 5B, listed as Nicotine): stimulated EC migration in a dose-dependent manner
thioredoxin activity, agent alone [3, 7]: induced HMVEC thioredoxin activity significantly above vehicle; also recorded: increased
thioredoxin activity, agent alone ([3]; HMVEC, vs vehicle, nicotine 10^−8M, VEGF 10 ng/ml, bFGF 10 ng/ml, hexamethonium 10^−4M, FIG. 4, 5A, listed as Nicotine): increased

VEGF
Fold Change CHRM5 (Cholinergic muscarinic receptor 5) [4]: 2.0
Fold Change CHRNA3 (Nicotinic receptor alpha polypeptide 3) [4]: 1.7
Fold Change CHRNA10 (Nicotinic receptor alpha polypeptide 10) [4]: 2.0
Fold Change CHRNB2 (Nicotinic receptor beta polypeptide 2) [4]: 6.9
Fold Change CHRNB3 (Nicotinic receptor beta polypeptide 3) [4]: 2.2
expression of the VEGF receptor FLT1 [4]: induced activation
EC (HMVEC) migration, stimulus alone [1]: induced EC migration
concentration of maximal effects on EC migration [1]: 10 ng/mL
thioredoxin activity, agent alone [3]: induced HMVEC thioredoxin activity significantly above vehicle; also recorded: increased

bFGF: human bFGF purchased from R&D Systems; angiogenic growth factor
expression of the VEGF receptor FLT1 [4, 5]: induced activation
concentration of maximal effects on EC migration ([1]; HMVEC, range 1-10 ng/ml): 10 ng/mL
EC (HMVEC) migration, stimulus alone [1, 6]: induced EC migration
thioredoxin activity, agent alone [3, 7]: less robust (P=0.02 vs. vehicle) but significant increase; also recorded: increased

scrambled siRNA: Scrambled (randomly arranged) RNAi GUUGGCCAUUCUACUUCGCTTdtt (SEQ ID NO:17) used as negative control (GUUGGCCAUUCUACUUCGCTTDTT; dTdT overhang, further chemistry not given here)
effect of siRNA on growth factor induced endothelial cell migration ([1]; HMVEC): no effect
HMVEC migration after siRNA transfection [1]: no effect
thioredoxin activity after siRNA transfection ([3]; HMVEC): no effect

siRNA against TXNIP: Double-stranded siRNA to TXNIP: sense ACAGACUUCGGAGUACCUGtt (SEQ ID NO: 14), antisense CAGGUACUCCGAAGUCUGUtt (SEQ ID NO: 15) (sense ACAGACUUCGGAGUACCUGTT; antisense CAGGUACUCCGAAGUCUGUTT; lower-case overhang letters stated to be dideoxynucleotides, upper case undefined, further chemistry not given here)
HMVEC migration after siRNA transfection [1]: strongly stimulated; also recorded: significantly increased
thioredoxin activity after siRNA transfection ([3]; HMVEC): significantly stimulated; also recorded: significantly increased

siRNA directed against ARHGEF: Double-stranded siRNA to ARHGEF7: sense GCCUGUGUCUCCCAAAUCAtt (SEQ ID NO: 5), antisense UGAUUUGGGAGACACAGGCtt (SEQ ID NO: 6) (sense GCCUGUGUCUCCCAAAUCATT; antisense UGAUUUGGGAGACACAGGCTT; lower-case overhang letters stated to be dideoxynucleotides, upper case undefined, further chemistry not given here)
effect of siRNA on growth factor induced endothelial cell migration ([1]; HMVEC): inhibited

siRNA directed against P4HA: Double-stranded siRNA to P4HA1: sense GGAUUUGUUGGGCAUCCAGtt (SEQ ID NO: 11), antisense CUGGAUGCCCAACAAAUCCtt (SEQ ID NO: 12) (sense GGAUUUGUUGGGCAUCCAGTT; antisense CUGGAUGCCCAACAAAUCCTT; lower-case overhang letters stated to be dideoxynucleotides, upper case undefined, further chemistry not given here)
effect of siRNA on growth factor induced endothelial cell migration ([1]; HMVEC): inhibited

siRNA directed against Rin2: Double-stranded siRNA to Rin2: sense CUGAAACAGGAGAUGGUGCtt (SEQ ID NO: 8), antisense GCACCAUCUCCUGUUUCAGtt (SEQ ID NO: 9) (sense CUGAAACAGGAGAUGGUGCTT; antisense GCACCAUCUCCUGUUUCAGTT; lower-case overhang letters stated to be dideoxynucleotides, upper case undefined, further chemistry not given here)
effect of siRNA on growth factor induced endothelial cell migration ([1]; HMVEC): inhibited

α-bungarotoxin
effect on nicotine-induced EC migration [1]: abolished
